From patent US7122335B1, “Compounds and methods to enhance rAAV transduction” (priority 1999, dated 2006) come the findings set out here.

Series [1] deals with human bronchial epithelia. As to the kind of experiment: Southern blot of Hirt DNA for rAAV genomes in polarized airway epithelia. Type of series: cell-based. How it is done:
FIGS. 15A–C. Examination of rAAV endocytosis by Southern blot analysis of viral DNA. Hirt DNA from AV.GFP3ori infected or mock infected (Lanes 1 and 7 in both FIGS. 15A and 15B) human bronchial epithelia were extracted for a direct examination of viral genomes by Southern blotting against a P^32-labeled EGFP probe. FIG. 15A depicts viral binding studies in the presence and absence of LLnL with or without EGTA treatment prior to apical or basolateral infection for 1 hour at 4° C. Cell surface-bound virus was completely removed by trypsin (FIG. 15A, lanes 2 through 6). To determine the amount of the surface-bound rAVV, cells were infected with AV.GFP3ori for 1 hour at 4° C. and were not treated with trypsin prior to Hirt DNA extraction. Panel A: lane 8: apical AAV infection; lane 9: apical AAV infection in the presence of LLnL; lane 10: cells were pre-treated with hypotonic EGTA prior to apical infection in the presence of LLnL; lane 11: basolateral infection; lane 12: basolateral infection in the presence of LLnL. FIG. 15B depicts the results of studies evaluating rAAV internalization from either the apical or the basolateral surface in the presence or absence of LLnL, and the internalization from the apical surface after combined treatment with hypotonic EGTA and LLnL. To detect the net amount of the internalized viral genome, all samples in FIG. 15B were treated with trypsin just before Hirt DNA was harvested. The extent of the internalized virus at 4 hours (FIG. 15B, lanes 2 through 6) and 24 hours (FIG. 15B, lanes 8 through 12) incubation at 37° C. after infection is represented by the intensity of the 1.6 kb single stranded viral genome band. FIG. 15B; lane 2; apical AAV infection for 4 hours; lane 3: apical AAV infection in the presence of LLnL for 4 hours; lane 4: cells were pre-treated with hypotonic EGTA prior to apical infection in the presence of LLnL for 4 hours; lane 5: basal infection for 4 hours; lane 6: basolateral infection in the presence of LLnL for 4 hours; lane 8: apical infection for 24 hours; lane 9: apical infection in the presence of LLnL for 24 hours; lane 10: cells were pre-treated with hypotonic EGTA prior to apical infection in the presence of LLnL for 24 hours; lane 11: basolateral infection for 24 hours; lane 12: basolateral infection in the presence of LLnL for 24 hours. […]
Molecular analysis of rAAV viral genomes owing infection of polarized airway epithelial cultures. […] Following binding, the extent of viral internalization was assessed by continuing incubations in the presence of virus at 37° C. for 4–24 hours. […] The 1.6 kb single stranded viral DNA, the 2.7 kb double stranded circular intermediate, and the 4.7 kb double stranded replication from viral genome were detected with a transgene EGFP specific probe at 5×10^6 cpm/ml. […]

Series [2] relates to polarized human bronchial epithelia. As to the kind of experiment: S35-labeled rAAV binding/entry assay in polarized bronchial epithelia. The format is cell-based. How it is done:
FIGS. 12A and 12B. Binding and uptake of S^35-labeled AV.GFP3ori in fully differentiated human bronchial epithelia. The ability of polarized bronchial epithelia to bind and internalize virus from the apical or the basolateral surfaces was quantified using S^35-labeled rAAV. The binding assay was performed after incubation with virus at 4° C. for 1 hour, followed by repeated washing in PBS. The combined bound and internalized virus was quantified following incubation with virus at 4° C. for 1 hour, and subsequent incubation at 37° C. for 2 hours and 24 hours. Non-specific background binding of radiolabeled virus was determined in parallel studies on collagen coated empty chambers not seeded with bronchial cells. Background counts (averaging 15.67+/−5.17 cpm/well) were subtracted from experimental sample counts prior to analysis. Data in the right side of each figure is presented as the net cpms of bound/internalized virus (raw counts minus background counts of empty transwells). The results represent the mean (+/−SEM) of 6 independent transwells for each condition. Experiments were performed in triplicate from two independent tissue samples. The significance of the differences between each pair of samples (with or without LLnL) was evaluated using the Student's t-test and p-values are provided in brackets above the data for each condition. To correlate uptake of radioactive virus with the functional expression the rAAV encoded transgene, GFP expression from the same set of samples was quantified at 24 hour post-infection by indirect fluorescent microscopy. […]
Viral binding/entry assays and in situ localization of viral particles. […] Combined binding/entry of rAAV into differentiated airway epithelia was measured under the same conditions, except that the cultures were incubated at 37° C. for an additional 2–24 hours before they were harvested. […] After washing three times in PBS, cells were lysed in situ by the addition of 5 ml of liquid scintillation cocktail at room temperature for 5 minutes, and the radioactivity was quantitated in a scintillation counter.

A short description of series [3]: Solubility in ethanol. The format is physicochemical.

As for “N-acetyl-L-leucinyl-L-leucinal-L-norleucinal [LLnL]”, the “rAAV binding to either surface (Southern blot)” value in series [1] (1 hour at 4° C.) is given as “not affected”. Further, the “enzymatic degradation of internalized AAV viral DNA” value in series [1] (LLnL alone) is “did not substantially prevent enzymatic degradation”. In addition, the “amount of virus internalized from apical surface” value in series [1] (hypotonic EGTA pretreatment and LLnL) is given as “substantially increased the amount of virus internalized”. Besides, the “uptake of S35 labeled rAAV” value in series [2] (2 hour infection period at 37° C.) is “not altered”. The “amount of intracellular radioactivity” value in series [2] (24 hours post-infection, either surface infected) was “very significant decrease”. Further, in series [2] (S35 labeled rAAV, with or without LLnL), the “4° C. rAAV binding” value is given as “no significant effect”. In series [3], the solubility in ethanol result is “poor solubility”.
